Paper PMC2764847, “Dual Localized AtHscB Involved in Iron Sulfur Protein Biogenesis in Arabidopsis” (PLoS ONE, 2009)

Target: T1, AtHscA1 (Arabidopsis thaliana, UniProt Q8GUM2)
T1 construct: gene HSP70-9
T1 sequence (Q8GUM2 47-682): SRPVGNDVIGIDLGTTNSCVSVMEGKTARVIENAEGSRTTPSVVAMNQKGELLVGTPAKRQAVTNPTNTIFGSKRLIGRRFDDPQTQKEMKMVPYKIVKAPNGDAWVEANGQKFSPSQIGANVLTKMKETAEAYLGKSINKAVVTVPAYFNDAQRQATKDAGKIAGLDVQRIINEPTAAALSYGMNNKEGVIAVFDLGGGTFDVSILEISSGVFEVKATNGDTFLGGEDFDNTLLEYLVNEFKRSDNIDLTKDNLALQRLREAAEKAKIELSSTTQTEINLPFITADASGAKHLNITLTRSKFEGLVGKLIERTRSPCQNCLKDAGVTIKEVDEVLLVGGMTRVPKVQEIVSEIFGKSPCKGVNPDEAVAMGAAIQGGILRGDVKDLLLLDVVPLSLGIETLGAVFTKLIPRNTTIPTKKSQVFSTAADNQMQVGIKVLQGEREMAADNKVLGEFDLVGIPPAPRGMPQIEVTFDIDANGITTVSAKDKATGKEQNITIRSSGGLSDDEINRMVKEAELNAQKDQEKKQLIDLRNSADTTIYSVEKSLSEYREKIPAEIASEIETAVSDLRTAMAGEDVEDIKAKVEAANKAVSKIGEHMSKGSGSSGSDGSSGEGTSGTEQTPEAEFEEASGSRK
Test: ATPase assay, [gamma-32P]ATP hydrolysis, TLC and phosphorimager
Type: biochemical
Settings: 50 mM Tris-HCl pH 7.4, 50 mM NaCl, 10 mM KCl, 0.1 mM EDTA, 1.5 mM DTT; 2 µM protein; no co-chaperone; labelled compound

Nc1ncnc2c1ncn2[C@@H]1O[C@H](COP(=O)(O)OP(=O)(O)OP(=O)(O)O)[C@@H](O)[C@H]1O [ATP]
Km: 49.5 µM
